{"source": "paper PMC7815984", "about": "(Biochemical and biophysical research communications, 2020)", "key": {"[1]": {"test_system": "rat aortic ring microvessel outgrowth", "experiment": "Rat aortic ring assay of angiogenesis", "assay_type": "cell-based, Sprague Dawley rats"}, "[2]": {"test_system": "Human Umbilical Vein Endothelial Cells (HUVECs)", "experiment": "Endothelial cell tube formation assay"}, "[3]": {"biological_target": "TBD (residues 319–425 of human CRBN) (Homo sapiens, UniProt Q96SW2)", "sequence (Q96SW2 319-425)": "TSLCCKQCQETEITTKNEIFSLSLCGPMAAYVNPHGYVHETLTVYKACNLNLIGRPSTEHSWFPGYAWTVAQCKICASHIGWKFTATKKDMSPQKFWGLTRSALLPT", "assay_type": "binding", "details": "competitive MST"}, "[4]": {"test_system": "Human Umbilical Vein Endothelial Cells (HUVECs)", "details": "12.5–100 μM; cited from earlier work"}}}
{"smiles": "NC(=O)c1nnn(Cc2cc(Cl)c(C(=O)c3ccc(Cl)cc3)c(Cl)c2)c1N", "note": "[CAI, carboxyamidotriazole]", "values": [{"measurement": "suppression of angiogenesis (positive control)", "setting": "[1]; 30 μM CAI, 4 days", "result": 95, "unit": "%"}]}
{"smiles": "O=C1c2c(F)c(F)c(F)c(F)c2C(=O)N1c1ccc(F)cc1F", "note": "[CPS49]", "values": [{"measurement": "inhibition of tube formation compared with vehicle control (positive control)", "setting": "[2]; 30 μM CPS49, HUVECs, 18 hours", "result": 89, "unit": "%"}]}
{"smiles": "O=C1CCC(N2C(=O)c3c(F)c(F)c(F)c(F)c3C2=O)C(=O)N1", "note": "(stereo not shown) [Gu3041, 2-(2,6-Dioxo-3-piperidyl)-4,5,6,7-tetrafluoro-isoindoline-1,3-dione]", "values": [{"measurement": "tube formation over concentration range (in words)", "setting": "[2]; 0.1–10 μM, HUVECs", "result": "reduced tube formation in a concentration-dependent manner"}]}
{"smiles": "CC(C)N1C(=O)NC(=O)C(C)(NC(=O)c2ccccc2)C1=O", "note": "(stereo not shown) [Gu3407, N-(1-Isopropyl-5-methyl-2,4,6-trioxo-hexahydropyrimidin-5-yl)benzamide]", "values": [{"measurement": "binding to TBD of human CRBN (in words)", "setting": "[3]", "result": "did not show any binding"}, {"measurement": "inhibition of tube formation at initial screening dose (in words)", "setting": "[2]; 10 μM, HUVECs, 18 hours", "result": "no inhibition"}, {"measurement": "inhibition of tube formation over concentration range (in words)", "setting": "[2]; 10–100 μM, HUVECs", "result": "no significant inhibition"}]}
{"smiles": "CO[C@@H]1[C@H](OC(=O)NC(=O)CCl)CC[C@]2(CO2)[C@H]1[C@@]1(C)O[C@@H]1CC=C(C)C", "note": "[TNP-470]", "values": [{"measurement": "suppression of angiogenesis (positive control)", "setting": "[1]; 50 μM TNP-470, 4 days", "result": 92, "unit": "%"}]}
{"smiles": "O=C1CCC(N2C(=O)c3ccccc3C2=O)C(=O)N1", "note": "(stereo not shown) [Thalidomide, 2-phthalimidinoglutarimide]", "values": [{"measurement": "microvessel outgrowth (in words)", "setting": "[1]; 100 μM, 4 days", "result": "not significantly blocked"}, {"measurement": "tube formation, previous results (in words)", "setting": "[4]", "result": "failed to significantly block tube formation"}, {"measurement": "antiangiogenic activity in tube formation (in words)", "setting": "[2]; 100 μM, HUVECs", "result": "did not demonstrate potent antiangiogenic activity"}]}
